Experimental data reported in patent publication US20040005537A1, “Method of identifying toxic agents using differential gene expression” (priority 2000, published 2004).

System: rat heart tissue
Experiment: GENECALLING differential gene expression analysis after dosing of serotonin modulating agents
Type: in vivo, Sprague Dawley rats
Method: Control animals received sterile water or canola oil. The animals were sacrificed 24 hours following the last dose. Liver tissue was dissected from the animals, and total RNA was recovered from the dissected tissue. cDNA was prepared and the resulting samples were processed through using GENECALLING™ differential expression analysis as described in U.S. Pat. No. 5,871,697 and in Shimkets et al., Nature Biotechnology 17:798-803 (1999). The contents of these patents and publications are incorporated herein by reference in their entirety.
Thousands of gene fragments were initially found to be differentially expressed in rat heart tissue in response to serotonin modulating agents in. Genes fragments whose expression levels were modulated greater than ±1.5-fold were selected for further analysis.
Column 6 of Table 1, entitled “Function”, lists the type of classification assigned for the protein, based on its function. The 210 single nucleic acid sequences identified herein, are referred to herein as CARDIOTOX 1-210.

CCNC(C)Cc1cccc(C(F)(F)F)c1 (centres unmarked) [fenfluramine]
Effects on Transcription Level: Novel gene fragment, 467 bp, 94% SI to mouse gelsolin [J04953] (CARDIOTOX 70): −3.6 fold | Effects on Transcription Level: Novel gene fragment, 535 bp, 90% SI to mouse slow/cardiac troponin C [M29793] (CARDIOTOX 71): −3.7 fold | Effects on Transcription Level: Novel gene fragment, 445 bp, 85% SI to human skeletal muscle alpha 2 actinin [M86406] (CARDIOTOX 72): −2.0 fold | Effects on Transcription Level: Novel gene fragment, 246 bp, 89% SI to mouse ponsin-1 [AF078667] (CARDIOTOX 73): −2.8 fold | Effects on Transcription Level: Novel gene fragment, 126 bp, 77% SI to human DNA sequence from cosmid V311G7, between markers DXS366 and DXS87 on chromosome X [Z69304] (CARDIOTOX 74): +1.9 fold | Effects on Transcription Level: Novel gene fragment, 370 bp (CARDIOTOX 75): −3.0 fold | Effects on Transcription Level: Novel gene fragment, 337 bp, 78% SI to novel human protein AHNAK [M80899] (CARDIOTOX 76): −3.6 fold | Effects on Transcription Level: Novel gene fragment, 100 bp, 93% SI to human KIAA0750 protein [ABO18293] (CARDIOTOX 77): −9.0 fold | Effects on Transcription Level: Novel gene fragment, 44 bp (CARDIOTOX 78): −6.7 fold | Effects on Transcription Level: Novel gene fragment, 698 bp, 93% SI to mouse plenty-of-prolines-101 [AF062655] (CARDIOTOX 79): −2.5 fold | Effects on Transcription Level: Novel gene fragment, 660 bp, 84% SI to mouse membrane protein TMS-2 [AF181685] (CARDIOTOX 80): −3.7 fold | Effects on Transcription Level: Novel gene fragment, 115 bp (CARDIOTOX 81): −6.3 fold | Effects on Transcription Level: Novel gene fragment, 294 bp, 95% SI to mouse Ndr1 related protein Ndr2 [AB033921] (CARDIOTOX 82): −2.0 fold | Effects on Transcription Level: Novel gene fragment, 198 bp (CARDIOTOX 83): +2.7 fold | Effects on Transcription Level: Novel gene fragment, 730 bp, 86% SI to mouse E800 [Y10968] (CARDIOTOX 84): −2.4 fold | Effects on Transcription Level: Novel gene fragment, 294 bp, 98% SI to cysteine conjugate beta-lyase [S61960] (CARDIOTOX 85): −2.4 fold | Effects on Transcription Level: Aconitase (CARDIOTOX 86, GenBank A1243266): −3.4 fold | Effects on Transcription Level: Ribosomal protein L7 (CARDIOTOX 87, GenBank M17422): +2.5 fold | Effects on Transcription Level: Ribosomal protein L9 (CARDIOTOX 88, GenBank X51706): +11.0 fold | Effects on Transcription Level: Ribosomal protein L12 (CARDIOTOX 89, GenBank X53504): −1.5 fold | Effects on Transcription Level: 18S, 5.8S, and 28S ribosomal RNA's (CARDIOTOX 90, GenBank V01270): +6 fold | Effects on Transcription Level: Pyruvate dehydrogenase kinase 2 (PDK2) (CARDIOTOX 91, GenBank U10357): −7.7 fold | Effects on Transcription Level: D-Binding Protein (DBP) (CARDIOTOX 92, GenBank J03179): −1.9 fold | Effects on Transcription Level: Lipoprotein lipase (CARDIOTOX 93, GenBank L03294): −2.3 fold | Effects on Transcription Level: Non-neuronal enolase (CARDIOTOX 94, GenBank X02610): +3.5 fold | Effects on Transcription Level: Glycogen phosphorylase (muscle isozyme) (CARDIOTOX 95, GenBank L10669): −2.3 fold | Effects on Transcription Level: Cytochrome c oxidase subunit IV (CARDIOTOX 96, GenBank X14209): +10.0 fold | Effects on Transcription Level: Alpha-globin (CARDIOTOX 97, GenBank M17083): +3.4 fold | Effects on Transcription Level: Beta-globin (CARDIOTOX 98, GenBank X06701): +3.6 fold | Effects on Transcription Level: Myoglobin (CARDIOTOX 99, GenBank AF197916): +4.0 fold | Effects on Transcription Level: Titin (CARDIOTOX 100, GenBank L38717): −1.6 fold | Effects on Transcription Level: Skeletal muscle actin (CARDIOTOX 101, GenBank V01218): −14.9 fold | Effects on Transcription Level: Myosin light chain 2 (MLC2) (CARDIOTOX 102, GenBank M11851): +2.4 fold | Effects on Transcription Level: Alpha cardiac myosin heavy chain (CARDIOTOX 103, GenBank X15938): −7.5 fold | Effects on Transcription Level: Troponin I (CARDIOTOX 104, GenBank U77354): +1.8 fold | Effects on Transcription Level: Cardiac calsequestrin (CARDIOTOX 105, GenBank AF001334): −2.4 fold | Effects on Transcription Level: Sulfated glycoprotein 2 (CARDIOTOX 106, GenBank M16975): −1.8 fold | Effects on Transcription Level: Aquaporin 7 (CARDIOTOX 107, GenBank AB000507): +1.5 fold | Effects on Transcription Level: Carnitine/acylcarnitine carrier protein (CARDIOTOX 108, GenBank X97831): −2.6 fold | Effects on Transcription Level: Glu-Pro Dipeptide Repeat (CARDIOTOX 109, GenBank U40628): −5.6 fold | Effects on Transcription Level: Cystatin beta (CARDIOTOX 110, GenBank X54737): +2.7 fold | Effects on Transcription Level: Novel gene fragment, 593 bp, 90% SI to human calcineurin B-like protein [Z08983] (CARDIOTOX 111): +2.1 fold | Effects on Transcription Level: Novel gene fragment, 179 bp, 88% SI to human titin [X90568] (CARDIOTOX 112): −3.0 fold | Effects on Transcription Level: Novel gene fragment, 700 bp, 91% SI to mouse periplakin (PPL) [AF116523] (CARDIOTOX 113): +2.0 fold | Effects on Transcription Level: Long chain acyl-CoA dehydrogenase (LCAD) (CARDIOTOX 114, GenBank J05029): +1.8 fold | Effects on Transcription Level: Sulfated glycoprotein 1 (SGP-1) (CARDIOTOX 115, GenBank M19936): −2.0 fold | Effects on Transcription Level: Catalase (CARDIOTOX 116, GenBank M11670): +2.1 fold | Effects on Transcription Level: Alpha-fodrin (A2A) (Nonerythroid spectrin alpha subunit) (CARDIOTOX 117, GenBank AF084186): −1.8 fold | Effects on Transcription Level: Cardiac specific sodium channel alpha-subunit (CARDIOTOX 118, GenBank M27902): −2.1 fold | Effects on Transcription Level: Glu-Pro Dipeptide Repeat (CARDIOTOX 119, GenBank U40628): +4.2 fold | Effects on Transcription Level: Novel gene fragment, 200 bp, 64% SI to human KIAA0733 protein [AB018316] (CARDIOTOX 120): −1.7 fold | Effects on Transcription Level: RNA polymerase II transcription factor SIII (p18 subunit) (CARDIOTOX 121, GenBank L42855): +1.7 fold | Effects on Transcription Level: Protein-tyrosine phosphalase (LRP) (CARDIOTOX 122, GenBank L01702): +2.0 fold | Effects on Transcription Level: Skeletal muscle selenoprotein W (SelW) (CARDIOTOX 123, GenBank U25264): −1.8 fold | Effects on Transcription Level: Sarcoplasmic reticulum 2+-Ca-ATPase (CARDIOTOX 124, GenBank X15635): −1.6 fold | Effects on Transcription Level: Ribosomal protein S7 (CARDIOTOX 125, GenBank X53377): +1.0 fold | Effects on Transcription Level: Ribophorin I (CARDIOTOX 126, GenBank X05300): +1.6 fold | Effects on Transcription Level: Beta cardiac myosin heavy chain (CARDIOTOX 127, GenBank X15939): +2.3 fold | Effects on Transcription Level: ADP-ribosylation factor 1 (CARDIOTOX 128, GenBank L12380): +1.2 fold | Effects on Transcription Level: Laminin receptor (CARDIOTOX 129, GenBank U04942): +2.6 fold | Effects on Transcription Level: Novel gene fragment, 206 bp, 89% SI to human seryl-tRNA synthetase [X91257] (CARDIOTOX 130): +1.8 fold | Effects on Transcription Level: Annexin VI (CARDIOTOX 131, GenBank X86086): −1.8 fold | Effects on Transcription Level: Novel gene fragment, 325 bp, 90% SI to mouse N-RAP [U76618] (CARDIOTOX 132): +1.7 fold | Effects on Transcription Level: Novel gene fragment, 61 bp (CARDIOTOX 134) (LD10 dose for three days): −2.4 fold | Effects on Transcription Level: Novel gene fragment, 337 bp (CARDIOTOX 133) (LD10 dose for three days): −2.4 fold | Effects on Transcription Level: Novel gene fragment, 378 bp, 88% SI to human coatomer protein (COPA) [U24105] (CARDIOTOX 138) (LD10 dose for three days): −1.6 fold | Effects on Transcription Level: Long chain 3-ketoacyl-CoA thiolase (CARDIOTOX 136) (LD10 dose for three days, GenBank D16479): −1.1 fold | Effects on Transcription Level: TATA-binding protein interacting protein 120 (TIP120) (CARDIOTOX 135) (LD10 dose for three days, GenBank D87671): +1.9 fold | Effects on Transcription Level: Serine protease (CARDIOTOX 139) (LD10 dose for three days, GenBank D88250): +4.0 fold | Effects on Transcription Level: Thymosin beta-4 (CARDIOTOX 137) (LD10 dose for three days, GenBank M34043): +1.6 fold | Effects on Transcription Level: Annexin VI (no CARDIOTOX assignment given) (LD10 dose for three days, GenBank X86086): −1.7 fold
